Laboratory results published in publication PMC7615676, “Short-course combination treatment for experimental chronic Chagas disease” (Science translational medicine, 2023).
Converted amounts (≈) assume the structure as drawn. “And” between values parts separate entries of the source, which are not always exact repeats. Identical values can stand only once. Like-named read-outs stand apart in the source and are kept apart here.

Tests used:
[1] = system: intracellular T. cruzi amastigotes, strain Silvio X10/7 A1; test: intracellular T. cruzi amastigote potency assay; format: cell-based; settings: Trypanosoma cruzi
[2] = system: T. cruzi culture derived trypomastigotes, strain Silvio X10/7 A1; test: trypomastigote assay; format: cell-based; settings: Trypanosoma cruzi
Experimental: Trypomastigote assays using strain Silvio X10/7 subclone A1 were carried out as described in ([19]). Parasite culture and potency determinations for panel of strains were performed as in ([19]). Strains used were M6241 clone 6 (DTU III), ERA clone 2 (DTU IV), PAH179 clone 5 (DTU V) and CL Brener-Luciferase (PpyRE9h-expressing T. cruzi, same strain that is used in animal model studies ([67])) (DTU VI). […] For Y strain compound exposure time was 3 days. Rate-of-kill assays were carried out as described in ([39]).

[3] = kinetic aqueous solubility (CLND); format: physicochemical; settings: phosphate buffered saline, aqueous buffer, kinetic from dmso stock, pH 7.4
Experimental: The eluent is quantified by suitably calibrated flow injection CLND. This assay has a dynamic range between the lower detection limit of 1 and 500 μM, governed by the protocol’s 1:20 dilution into pH 7.4 phosphate buffer solution from nominal 10 mM DMSO stock.

FaSSIF solubility assay = format: physicochemical; settings: pH 6.5, 4 h
Experimental: Solubility of test compounds in fasted simulated intestinal fluid (FaSSIF) was determined at pH 6.5 after 4 h equilibration at rt. An amount of1 mL of FaSSIF buffer (3 mM sodium taurocholate, 0.75 mM lecithin in sodium phosphate buffer at pH 6.5) was added to manually weighed 1 mg of solid compound in a 2 mL HPLC autosampler vial. The resulting suspension was shaken at 900 rpm for 4 h at rt and then transferred to a Multiscreen HTS, 96-well solubility filter plate. The residual solid was removed by filtration. The supernatant solution was quantified by HPLC−UV using single-point calibration of a known concentration of the compound in DMSO. The dynamic range of the assay was 1−1000 μg/mL.

[4] = intrinsic clearance in human liver microsomes; format: in vitro ADME; settings: for half-life at 0.5 μM: read-out: T 1/2 human
Experimental: Immediately at time zero and at several serial times points up to 30 min, an aliquot of the incubation mixture was removed and mixed with acetonitrile to stop the reaction. Internal standard was added to all samples, the samples centrifuged to sediment precipitated protein and the plates then sealed prior to HPLC-MS/MS analysis. Metabolic stability expressed as a percentage of the parent molecule was calculated using the peak area ratio (compound peak area/internal standard peak area) of different compounds remaining after each incubation time compared to time zero of the incubation. The half-life (t1/2) was calculated using the following equation: t1/2=−ln(2)/k, where k is the turn-over rate constant of the ln (percent remaining) vs time regression.
CLint was calculated from the half-life (t1/2) using the following equations:
CLint (ml/min/g liver) = (0.693/(t1/2) x (ml of incubation/mg microsomal protein) x (mg microsomal protein/g liver).

[5] = system: chronic T. cruzi infection (CL Brener) in BALB/c mice; test: bioluminescent mouse model of chronic Chagas disease; format: in vivo, Trypanosoma cruzi
Experimental: Compound 2 was evaluated in a bioluminescent mouse model of Chagas disease designed to mimic chronic infections. This model successfully differentiates the clinically used drugs from the clinically invalidated CYP51 inhibitors ([21]). Key features of this model include immunosuppression of mice following cessation of treatment to allow detection of parasite relapses, and ex vivo bioluminescence imaging that allows tissue-specific visualization of parasites. Treatments are considered efficacious if there is no evidence of bioluminescence during in vivo (mouse) and ex vivo (organ/tissue) imaging following immunosuppression ([38]). Under these experimental conditions, compound 2 was able to prevent parasite relapse in 2 of the 6 mice treated orally twice daily for 10 days at 50 mg/kg (Table S1). Increasing the dose to 100 mg/kg or extending treatment duration to 21 days provided similar partial efficacy rates.
Experiments followed a similar protocol to that described in ([21]). All animals were female (BALB/cAnNCrlC mice, 6-8 weeks old, strain code: 028, supplier: Charles River (UK)). We have previously shown that there are no differences in the bioluminescence profiles between infected males and females ([77]). Animals were maintained under specific pathogen-free conditions in individually ventilated cages. They experienced a 12-hour light/dark cycle, with access to food and water ad libitum. Mice were randomly selected and distributed into cages on arrival day by a Named Animal Care and Welfare Officer (NACWO), at LSHTM biological service facility (BSF). For efficacy experiments animals were randomly selected from the cages and ear/tail tagged on the infection day, starting from number 1. The same mouse ID was kept until the experimental endpoint. Mice were infected by i.p injection with 1x10^3 trypomastigotes derived from SCID mouse blood ([67]). To confirm infection, mice were imaged around the peak of parasite load. […] Treatment initiated in the chronic stage of infection ranging between 90 and 127 days post-infection. Drugs were administered by oral gavage (~200 μl), and vehicle only (0.5% w/v hydroxypropylmethylcellulose with 0.4% v/v Tween 80 and 0.5% v/v benzyl alcohol) was administered to control mice. Total number of animals for each study arm is shown in the relevant figures. To detect residual infection, mice were immunosuppressed using cyclophosphamide (at 200 mg/kg) by ip injection every 4 days for a maximum of three doses. For in vivo imaging, mice were injected ip with 150 mg/kg D-luciferin in Dulbecco’s Ca^2+/Mg^2+-free PBS, then anaesthetized using 2.5% (v/v) isofluorane in oxygen. Images were obtained using an IVIS Lumina II system (Caliper Life Science) 10−20 min after D-luciferin administration. The detection threshold was established from uninfected mice. Organs/tissue samples were assessed by ex vivo imaging as described previously ([21]). The limit of detection in this system is less than 20 parasites ([29]).

[6] = biological target: T. cruzi complex III (epimastigote lysates) (Trypanosoma cruzi, UniProt Q9T479); test: T. cruzi complex III assay; format: biochemical; settings: decylubiquinol substrate
Chain of T. cruzi complex III (epimastigote lysates) (Q9T479 entry or part of it, one chain of several): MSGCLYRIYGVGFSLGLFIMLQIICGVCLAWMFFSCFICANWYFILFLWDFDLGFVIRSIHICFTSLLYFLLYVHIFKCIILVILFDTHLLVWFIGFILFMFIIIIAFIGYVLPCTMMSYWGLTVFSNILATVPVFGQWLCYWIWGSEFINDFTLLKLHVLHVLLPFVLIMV
Experimental: Complex III activity within these lysates was monitored in the presence and absence of compound 3, compound 5 and related analogues from this series, using decylubiquinol as a pseudo-substrate ([43]).
Measurement of complex III activity and inhibition were performed as described previously ([43]).

[7] = intracellular amastigotes Silvio X10/7 A1, 96 h, ± SD, min. three experiments, read-out: Amastigotes pEC50 (converted)
[8] = read-out: Trypomastigotes pEC50 (converted)

| SMILES | EC50 [1, 7] [µM] | EC50 ([1]; read-out: Amastigotes EC50) [µM] | EC50 ([2]; read-out: Trypomastigotes EC50) [µM] | EC50 [2, 8] [µM] | solubility at 1 h [3] [µg/mL] | FaSSIF pH 6.5 (FaSSIF solubility assay) [µg/mL] | Cl int human [4] [ml/min/g liver] | half-life at 0.5 μM [4] [h] | No. cured/ no. tested ([5]; 50 mg/kg bid oral, 10 days) | No. cured/ no. tested ([5]; 50 mg/kg bid oral, 20 days (changed to 11 bid + 9 qd)) | tolerability in infected mice ([5]; 50 mg/kg bid, 20-day regimen) | IC50 [6] [µM] | No. cured/ no. tested ([5]; 100 mg/kg qd oral, 10 days) | No. cured/ no. tested ([5]; 100 mg/kg qd oral, 20 days) | No. cured/ no. tested ([5]; 50 mg/kg bid oral, 21 days) | No. cured/ no. tested ([5]; 100 mg/kg bid oral, 10 days (changed to once daily after day 1)) | toxicity in infected mice ([5]; 100 mg/kg bid, after first day of treatment) |
| --- | --- | --- | --- | --- | --- | --- | --- | --- | --- | --- | --- | --- | --- | --- | --- | --- | --- |
| COc1cc(Cl)ccc1-c1c(C)[nH]c2nc(N)nc(C)c12 [Compound 3, 5-(4-Chloro-2-methoxyphenyl)-4,6-dimethyl-7H-pyrrolo[2,3-d]pyrimidin-2-amine] | 0.01 | 0.01 | 0.01 | 0.0126 | 103 (≈ 340 µM) | 76 | 0.4 | > 2.32 | 4/6 | 2/6 | tolerability issues | 0.002 ± 0.0003 | – | – | – | – | – |
| O=C(Cn1ccnc1[N+](=O)[O-])NCc1ccccc1 [Benznidazole, reference compound] | 2 | 2 | 4 | 3.98 | 77 (≈ 296 µM) | – | – | – | – | – | – | – | 3/3 | 6/6 | – | – | – |
| COc1cc(F)ccc1-c1c(C)[nH]c2nc(N)nc(C)c12 [Compound 2, 5-(4-Fluoro-2-methoxyphenyl)-4,6-dimethyl-7H-pyrrolo[2,3-d]pyrimidin-2-amine] | 0.0501 | 0.05 | 0.03 | 0.0316 | 117 (≈ 409 µM) | 153 | 0.6 | 1.6 | 2 of the 6 and 2/6 | – | – | 0.008 ± 0.001 | – | – | 2/6 | 2/4 | two mice were culled due to toxicity |
| COc1ccc(-c2c(C)[nH]c3nc(N)nc(C)c23)c(OC)c1 [Compound 4, 5-(2,4-Dimethoxyphenyl)-4,6-dimethyl-7H-pyrrolo[2,3-d]pyrimidin-2-amine] | 0.0794 | 0.08 | 0.05 | 0.0501 | 137 (≈ 459 µM) | 107 | 0.8 | 1.1 | – | – | – | 0.006 ± 0.001 | – | – | – | – | – |
